Assay results from ChEMBL document CHEMBL1201862, “PubChem BioAssay data set” (2004).
Activity calls are given as the source filed them.

Key:
[1] = target: T1, Replicative DNA helicase DnaB (Mycobacterium tuberculosis, UniProt P9WMR3); assay: DnaB intein splicing inhibitors, dose response, biochemical, cell-free fluorescence (AID 449749); assay type: functional
T1 sequence (P9WMR3 whole entry): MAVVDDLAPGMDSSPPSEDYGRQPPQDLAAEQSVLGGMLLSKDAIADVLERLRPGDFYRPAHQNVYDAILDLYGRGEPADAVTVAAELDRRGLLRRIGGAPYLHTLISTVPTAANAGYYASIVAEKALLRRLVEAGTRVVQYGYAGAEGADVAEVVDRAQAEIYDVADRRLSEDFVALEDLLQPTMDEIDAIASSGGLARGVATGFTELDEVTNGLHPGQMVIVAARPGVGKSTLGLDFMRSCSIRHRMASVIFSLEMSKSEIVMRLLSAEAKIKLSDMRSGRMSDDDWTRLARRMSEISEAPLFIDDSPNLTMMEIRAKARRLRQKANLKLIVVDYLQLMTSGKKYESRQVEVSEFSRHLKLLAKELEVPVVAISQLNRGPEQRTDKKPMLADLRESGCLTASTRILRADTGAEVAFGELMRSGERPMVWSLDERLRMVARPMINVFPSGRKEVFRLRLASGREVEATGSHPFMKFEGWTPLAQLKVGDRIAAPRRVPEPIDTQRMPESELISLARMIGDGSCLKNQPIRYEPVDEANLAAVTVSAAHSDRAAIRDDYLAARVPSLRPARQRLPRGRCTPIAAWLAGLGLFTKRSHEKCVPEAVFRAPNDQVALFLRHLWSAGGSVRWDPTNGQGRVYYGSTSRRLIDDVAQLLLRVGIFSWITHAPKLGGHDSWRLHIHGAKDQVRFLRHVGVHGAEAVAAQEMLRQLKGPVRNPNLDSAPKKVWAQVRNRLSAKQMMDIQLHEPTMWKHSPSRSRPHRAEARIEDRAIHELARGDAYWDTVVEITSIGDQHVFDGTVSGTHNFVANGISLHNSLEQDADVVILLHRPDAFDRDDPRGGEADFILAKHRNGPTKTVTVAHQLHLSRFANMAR

Protein RecA = target: T2, Protein RecA (Mycobacterium tuberculosis, UniProt P9WHJ3); assay: Fluorescence Cell-Free Homogeneous Dose Retest to Identify Inhibitors of RecA-Intein Splicing Activity. [Related pubchem assays (depositor defined):AID2097, AID2223, AID489010, AID492950]; assay type: functional
T2 sequence (P9WHJ3 whole entry): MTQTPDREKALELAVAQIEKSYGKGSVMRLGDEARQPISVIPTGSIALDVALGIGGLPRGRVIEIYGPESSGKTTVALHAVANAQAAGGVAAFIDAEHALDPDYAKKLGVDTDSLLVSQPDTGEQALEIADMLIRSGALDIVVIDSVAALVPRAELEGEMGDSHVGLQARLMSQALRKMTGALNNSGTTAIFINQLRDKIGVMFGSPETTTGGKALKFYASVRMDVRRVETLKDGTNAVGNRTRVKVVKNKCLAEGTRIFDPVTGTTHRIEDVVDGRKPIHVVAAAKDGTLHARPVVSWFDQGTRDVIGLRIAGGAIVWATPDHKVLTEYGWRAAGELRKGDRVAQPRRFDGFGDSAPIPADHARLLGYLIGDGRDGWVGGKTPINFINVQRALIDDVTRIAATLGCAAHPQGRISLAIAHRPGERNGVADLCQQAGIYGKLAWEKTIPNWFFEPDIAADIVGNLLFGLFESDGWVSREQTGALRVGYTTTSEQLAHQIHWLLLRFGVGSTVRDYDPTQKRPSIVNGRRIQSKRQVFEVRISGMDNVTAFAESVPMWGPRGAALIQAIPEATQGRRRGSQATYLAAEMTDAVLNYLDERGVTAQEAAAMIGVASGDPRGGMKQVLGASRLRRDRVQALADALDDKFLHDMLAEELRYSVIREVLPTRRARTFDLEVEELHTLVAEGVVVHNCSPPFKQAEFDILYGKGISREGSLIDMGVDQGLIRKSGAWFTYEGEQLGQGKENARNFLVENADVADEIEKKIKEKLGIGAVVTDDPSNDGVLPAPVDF

Cytochrome P450 2D6 = Cytochrome P450 2D6 (Homo sapiens, UniProt P10635);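 note: CYP2D6 member of a cytochrome P450 panel assay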
Sequence of Cytochrome P450 2D6 (P10635 whole entry): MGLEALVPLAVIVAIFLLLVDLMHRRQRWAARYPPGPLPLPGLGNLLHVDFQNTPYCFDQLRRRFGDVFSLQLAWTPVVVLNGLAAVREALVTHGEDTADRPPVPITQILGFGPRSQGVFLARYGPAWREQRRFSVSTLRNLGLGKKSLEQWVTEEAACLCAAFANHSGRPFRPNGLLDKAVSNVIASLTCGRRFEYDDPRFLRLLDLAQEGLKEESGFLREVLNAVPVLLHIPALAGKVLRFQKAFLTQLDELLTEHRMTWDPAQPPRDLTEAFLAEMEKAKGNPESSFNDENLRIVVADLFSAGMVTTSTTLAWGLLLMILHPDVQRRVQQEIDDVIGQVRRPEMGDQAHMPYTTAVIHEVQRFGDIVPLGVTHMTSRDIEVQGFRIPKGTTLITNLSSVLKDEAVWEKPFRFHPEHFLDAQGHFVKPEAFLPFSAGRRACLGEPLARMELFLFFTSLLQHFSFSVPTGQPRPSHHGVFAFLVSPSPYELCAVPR

Cytochrome P450 2C19 = Cytochrome P450 2C19 (Homo sapiens, UniProt P33261); assay: Cytochrome panel assay with activity outcomes. Panel member name: p450-cyp2c19 Compounds with AC50 equal or less than 10 uM are considered active; assay type: functional; conditions: read-out: AC50
Sequence of Cytochrome P450 2C19 (P33261 whole entry): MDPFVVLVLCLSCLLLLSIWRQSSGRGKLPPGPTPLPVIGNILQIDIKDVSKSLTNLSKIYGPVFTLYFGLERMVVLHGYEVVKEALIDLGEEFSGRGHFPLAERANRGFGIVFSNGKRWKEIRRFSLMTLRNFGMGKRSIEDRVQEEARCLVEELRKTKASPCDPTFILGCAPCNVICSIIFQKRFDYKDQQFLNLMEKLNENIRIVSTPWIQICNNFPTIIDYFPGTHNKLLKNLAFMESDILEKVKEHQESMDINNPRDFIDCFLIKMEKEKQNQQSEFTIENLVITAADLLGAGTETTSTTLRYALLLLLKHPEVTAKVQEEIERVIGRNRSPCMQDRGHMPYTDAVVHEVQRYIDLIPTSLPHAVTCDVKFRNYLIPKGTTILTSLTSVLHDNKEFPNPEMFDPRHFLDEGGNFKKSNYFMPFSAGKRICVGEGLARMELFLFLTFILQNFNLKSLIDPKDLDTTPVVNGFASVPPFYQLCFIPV

Cytochrome P450 3A4 = Cytochrome P450 3A4 (Homo sapiens, UniProt P08684);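 note: CYP3A4 tested as one member of a cytochrome P450 panel screen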
Sequence of Cytochrome P450 3A4 (P08684 whole entry): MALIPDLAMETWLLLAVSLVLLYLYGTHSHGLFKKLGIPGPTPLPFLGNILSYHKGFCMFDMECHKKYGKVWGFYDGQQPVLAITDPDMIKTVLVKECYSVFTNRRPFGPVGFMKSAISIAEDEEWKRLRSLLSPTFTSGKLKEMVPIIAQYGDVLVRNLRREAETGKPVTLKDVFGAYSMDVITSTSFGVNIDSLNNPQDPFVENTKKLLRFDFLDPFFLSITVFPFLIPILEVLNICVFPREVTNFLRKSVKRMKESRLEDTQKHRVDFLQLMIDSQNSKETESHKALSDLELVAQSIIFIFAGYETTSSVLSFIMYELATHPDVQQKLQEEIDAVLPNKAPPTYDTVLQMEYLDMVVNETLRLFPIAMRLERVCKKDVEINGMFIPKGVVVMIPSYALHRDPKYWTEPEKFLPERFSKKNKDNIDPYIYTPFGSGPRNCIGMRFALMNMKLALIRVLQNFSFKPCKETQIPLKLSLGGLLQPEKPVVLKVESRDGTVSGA

[2] = Trypanosoma cruzi growth suppression in host cells – NIH3T3 host cells, beta-gal luminescence, confirmation (AID 2044); assay type: functional, cell-based;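 note: intracellular parasites grown in NIH/3T3 mouse fibroblasts as host cells; luminescent beta-galactosidase reporter signal from transgenic T. cruzi replicating inside host cells; inhibitors lower the luminescence signal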
[3] = NIH3T3 cell viability loss – ATP luminescence, mouse fibroblasts, counter-screen, dose response (AID 2010); assay type: functional, cell-based;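 note: cells exposed to compound for about 90 hours before reading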
[4] = target: T3, Heat shock factor protein 1 (Mus musculus, UniProt P38532); assay: decrease of HSF1-responsive luciferase luminescence – cell-based, NIH3T3, dose retest, confirmation (AID 2382); assay type: functional;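 note: NIH3T3 fibroblasts with HSF1-driven luciferase reporter stressed by proteasome inhibitor MG132; luminescence from HSF1-driven luciferase expression after 8 hours of MG132 stress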
T3 sequence (P38532 whole entry): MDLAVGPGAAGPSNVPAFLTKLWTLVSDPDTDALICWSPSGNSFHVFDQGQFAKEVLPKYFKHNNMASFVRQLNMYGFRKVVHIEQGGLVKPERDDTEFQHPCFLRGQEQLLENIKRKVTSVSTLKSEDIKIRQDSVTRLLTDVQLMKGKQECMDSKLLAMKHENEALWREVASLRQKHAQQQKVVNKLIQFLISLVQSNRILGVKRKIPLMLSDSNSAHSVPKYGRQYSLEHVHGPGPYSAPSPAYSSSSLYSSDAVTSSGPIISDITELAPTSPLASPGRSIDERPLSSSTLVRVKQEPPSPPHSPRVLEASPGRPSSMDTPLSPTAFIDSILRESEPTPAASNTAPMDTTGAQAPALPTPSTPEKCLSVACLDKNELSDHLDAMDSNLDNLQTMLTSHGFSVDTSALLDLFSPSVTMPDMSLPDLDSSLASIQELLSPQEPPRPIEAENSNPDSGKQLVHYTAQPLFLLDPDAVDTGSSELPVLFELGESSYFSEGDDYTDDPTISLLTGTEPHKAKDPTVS

[5] = reduction of Shn3 3'UTR-driven luciferase in osteoblasts – cell-based, Clone20 osteoblasts, firefly luciferase, cherry-picked, dose response (AID 624132); assay type: functional;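 note: firefly luciferase luminescence from reporter carrying the Shn3 3'UTR in osteoblasts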
[6] = non-specific 3'UTR reporter inhibition in Clone20-Shn3RL – cell-based, Renilla luciferase, cherry-picked, counter-screen for Shn3 inhibitor project, dose response (AID 624133); assay type: functional
[7] = Luminescence Cell-Based Dose Response HTS to Identify Activators of Luciferase Translation or Activity in H4 […] Cells. [Related pubchem assays: 1829 (Project Summary), 1814 (Primary HTS)]; assay type: functional
H4 = assay: Luminescence Cell-Based Dose Response HTS to Identify Activators of 5'UTR Stem-Loop Driven Prion Protein mRNA Translation in H4 Neuroglioblastoma Cells. [Related pubchem assays: 1829 (Project Summary), 1814 (Primary HTS)]; assay type: functional; conditions: Homo sapiens
[8] = test system: Streptococcus sp. 'group A'; assay: Streptococcus pyogenes SK(-)GAS viability under kanamycin – luminescence, BacTiterGlo, confirmation, counter-screen for streptokinase expression inhibitor project, dose response (AID 1900); assay type: functional, organism-based
Streptokinase A = target: T4, Streptokinase A (Streptococcus pyogenes serotype M1, UniProt P10520); assay: viability-normalized secreted streptokinase activity reduction – plasminogen activation absorbance, OD405, dose response (AID 1914); assay type: functional, Streptococcus pyogenes M1 GAS;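 note: secreted streptokinase activity via plasminogen activation per viability signal from cell pellet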
T4 sequence (P10520 whole entry): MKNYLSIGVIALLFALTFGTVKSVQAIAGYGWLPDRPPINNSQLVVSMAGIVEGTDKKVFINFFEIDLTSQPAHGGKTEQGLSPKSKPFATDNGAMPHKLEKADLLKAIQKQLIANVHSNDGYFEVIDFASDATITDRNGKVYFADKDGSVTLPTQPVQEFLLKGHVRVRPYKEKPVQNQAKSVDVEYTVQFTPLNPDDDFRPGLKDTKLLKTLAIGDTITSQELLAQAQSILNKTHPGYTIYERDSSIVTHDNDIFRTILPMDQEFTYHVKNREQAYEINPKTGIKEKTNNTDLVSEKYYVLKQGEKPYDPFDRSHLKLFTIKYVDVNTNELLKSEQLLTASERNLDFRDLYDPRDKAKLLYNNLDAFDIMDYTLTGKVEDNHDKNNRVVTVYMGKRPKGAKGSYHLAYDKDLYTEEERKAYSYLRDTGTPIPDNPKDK

Streptococcus = assay: GAS UMAA2166 growth inhibition – luminescence, BacTiterGlo, counter-screen for streptokinase expression inhibitor project, dose response (AID 1915); assay type: functional, organism-based;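 note: potency for reduction of bacterial viability or growth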
Cytochrome P450 2C9 = Cytochrome P450 2C9 (Homo sapiens, UniProt P11712)
Sequence of Cytochrome P450 2C9 (P11712 whole entry): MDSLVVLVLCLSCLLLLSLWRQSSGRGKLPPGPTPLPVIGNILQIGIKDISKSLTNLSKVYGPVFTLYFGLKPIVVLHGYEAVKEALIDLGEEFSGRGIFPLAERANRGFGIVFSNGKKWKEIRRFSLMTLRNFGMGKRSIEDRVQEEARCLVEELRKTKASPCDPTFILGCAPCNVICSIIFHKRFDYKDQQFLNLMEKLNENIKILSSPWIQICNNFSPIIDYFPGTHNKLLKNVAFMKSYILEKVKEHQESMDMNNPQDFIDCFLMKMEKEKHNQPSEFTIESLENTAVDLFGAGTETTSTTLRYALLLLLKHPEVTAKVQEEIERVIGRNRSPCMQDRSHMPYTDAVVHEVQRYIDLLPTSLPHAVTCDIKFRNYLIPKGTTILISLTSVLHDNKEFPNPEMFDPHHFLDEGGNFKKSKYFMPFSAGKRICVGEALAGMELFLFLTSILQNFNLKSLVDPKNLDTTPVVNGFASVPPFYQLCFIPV

| SMILES | AC50 [1] | EC50 (Protein RecA) | AC50 (Cytochrome P450 2D6) | also measured |
| --- | --- | --- | --- | --- |
| N#CC(C#N)=NNc1ccc(S(=O)(=O)N2CCCCC2)cc1 | 4.03 µM (active) | 9.78 µM (active) | – | – |
| Cc1cc(NC(=O)Nc2ccc(N(C)C)cc2)c2cc(F)cc(F)c2n1 | – | – | 31.6 µM (inconclusive) | – |
| CC(C)(C)c1[nH]nc2c1C(Cc1ccccc1)C(C#N)=C(N)O2 (centres undefined) | 13.8 µM (active) | 2.31 µM (active) | – | – |
| CCc1cc2c(nc1CC)CCN(CC/C(C)=N/O[C@@H](C)c1cn([C@@H]3COC[C@@H]3O)nn1)C2 | – | – | 2.51 µM (inconclusive) | – |
| COc1ccc(OC)c2nc(O)c(CCNS(=O)(=O)c3ccc(Cl)cc3)cc12 | – | – | 31.6 µM (inconclusive) | AC50 (Cytochrome P450 2C19): 8.91 µM (inconclusive); AC50 (Cytochrome P450 3A4): 5.62 µM (inconclusive) |
| O=[N+]([O-])c1cc(-c2ccc(C(=S)N3CCOCC3)o2)ccc1Cl | 39.9 µM (active) | 10.2 µM (active) | – | – |
| O=[N+]([O-])c1ccc(Sc2nc(O)c3ccccc3n2)c([N+](=O)[O-])c1 | 16.9 µM (active) | 6.05 µM (active) | – | EC50 [2]: 1.48 µM (active); EC50 [3]: > 60 µM (not active) |
| COc1ccc(C2C(C#N)=C(N)Oc3[nH]nc(C)c32)cc1Cn1cc([N+](=O)[O-])cn1 (centres undefined) | 5.32 µM (active) | 3.11 µM (active) | – | – |
| COc1ccc(S(=O)(=O)N2CCN(CC(=O)Nc3cc(OC)cc(OC)c3)CC2)cc1 | – | – | 20 µM (inconclusive) | – |
| CCN(CC)CCc1nc(-c2ccccc2)no1 | – | – | 6.31 µM (inconclusive) | – |
| CC(=O)Oc1ccc(OC(C)=O)c(SCCCCCCl)c1 | – | – | – | EC50 [4]: 7.65 µM (active); AC50 [5]: 2.58 µM (active); AC50 [6]: 7.84 µM (active) |
| O=C(Oc1ccc(C(=S)N2CCOCC2)cc1)c1ccc([N+](=O)[O-])cc1[N+](=O)[O-] | 18.6 µM (active) | 10.6 µM (active) | – | – |
| Cc1ccc(C(=O)NNc2ncnc3ccccc23)cc1 | – | – | – | EC50 [7]: 6.62 µM (active); EC50 (H4): > 120 µM (not active) |
| Cc1nc2nc(C)c(CCC(=O)NCCCN3CCN(c4cccc(Cl)c4)CC3)c(C)n2n1 | – | – | 12.6 µM (inconclusive) | AC50 (Cytochrome P450 2C19): 25.1 µM (inconclusive) |
| O=C(CSc1nnc(-c2ccc(Cl)cc2)o1)N1CCOCC1 | – | – | – | EC50 [7]: 46.3 µM (active); EC50 (H4): 11.8 µM (active) |
| CCCC1C(C#N)=C(N)Oc2[nH]nc(C(C)(C)C)c21 (centres undefined) | 2.36 µM (active) | 0.504 µM (active) | – | – |
| N=C(N)SCc1nc(-c2ccc(Cl)cc2)no1 | – | – | 3.16 µM (inconclusive) | AC50 (Cytochrome P450 3A4): 5.01 µM (inconclusive) |
| Cc1cc(NC(=O)c2ccc(S(=O)(=O)Nc3ccccc3)cc2)no1 | – | – | 25.1 µM (inconclusive) | – |
| CCC(=O)c1cn(CC(=O)Nc2cccc(C)c2C)c2ccccc12 | – | – | – | AC50 [5]: 1.52 µM (active); AC50 [6]: 3.44 µM (active) |
| FC(F)(F)c1cccc(NC(S)=Nc2ccc(Cl)cc2Cl)c1 | – | – | 7.94 µM (inconclusive) | EC50 [8]: 4.48 µM (active); EC50 (Streptokinase A): > 150 µM (not active); EC50 (Streptococcus): 46.8 µM (active); AC50 (Cytochrome P450 3A4): 28.2 µM (inconclusive); AC50 (Cytochrome P450 2C9): 31.6 µM (inconclusive) |
| COc1cccc(-c2[nH]nc3c2C(c2ccc(C)o2)C(C#N)=C(N)O3)c1 (centres undefined) | 8.74 µM (active) | 1.53 µM (active) | – | AC50 (Cytochrome P450 2C9): 15.8 µM (inconclusive) |
| CCOc1cc(C(c2c(C)n[nH]c2O)c2c(C)n[nH]c2O)cc(Cl)c1O | > 380 µM (inactive) | 4.74 µM (active) | – | – |
| Nc1n[nH]c(SCC(=O)Nc2ccccc2Sc2ccc(Cl)cc2)n1 | – | – | 12.6 µM (inconclusive) | – |
| COc1cccc(CC(C(=O)Nc2cc(C)ccc2C)c2nn[nH]n2)c1OC (centres undefined) | – | – | 15.8 µM (inconclusive) | AC50 (Cytochrome P450 3A4): 25.1 µM (inconclusive) |
| Cc1ccc(SCc2cc(=O)n(C)[nH]2)cc1 | 13.3 µM (active) | 5.29 µM (active) | – | – |
| CCCCOc1cc(C(=O)NCCN(CC)CC)c2ccccc2n1 [DIBUCAINE] | – | – | 7.94 µM (inconclusive) | – |
